# Measured values published in patent US6379670B1, “Methods for treatment of multiple sclerosis using peptide analogs of human myelin basic protein” (Neurocrine Biosciences, Inc., priority 1994, dated 2002).
# Non-standard residues stand in square brackets, D forms with d. No end group written: not given here.
# Legend:
# [1] = test system: peripheral blood mononuclear cells; test: Frequency of antigen-reactive T cells in PBMC of untreated MS patients and healthy donors (split-well); format: cell-based, human; set-up: mean frequency of antigen-reactive T cells / frequency of antigen-reactive T cells in healthy subjects / antigen-reactive T cells, % Positive: concentration or dose not given beside the values
# Description: Immune response to the peptide analog was assessed by measuring the frequency of proliferating peripheral blood T cells using a split-well microtiter method (i.e., number of positive wells {Δ cpm >1000, stimulation index>3} divided by the total number of wells assayed). Peripheral blood mononuclear cells (PBMC) were isolated from venous blood by Ficoll-Hypaque density gradient centrifugation, washed twice and resuspended in complete tissue culture medium (Iscove's modification of Dulbecco's medium containing 10% heat-inactivated, pooled, human A-B serum, 2 mM L-glutamine, 100 U/ml penicillin/streptomycin and 50 μg/ml gentamycin). PBMC from each patient were seeded at 10^5/well in 96 well, U-bottom microtiter plates containing 25 μg/ml whole MBP, 10 μg/ml NBI-5788 or medium alone in a volume of 200 μl. Three days later supernatants were collected and frozen at −80° C. and fresh medium containing IL-2 (10 U/ml) was added. IL-2-containg medium was refreshed on Day 7 and Day 11. On Day 14, the frequency of antigen response was determined by the “split well” technique. Briefly, cells from one primary well were split into replicate experimental wells in the presence of 10^5 freshly isolated autologous, irradiated peripheral blood mononuclear cells (APCs): one containing the original antigen (25 μg/ml) and one without antigen. Two days later supernatants were collected and the wells pulsed with 1 µCi/well [^3H]-thymidine ([…]) for the final 18 hours of culture. ^3H-Thymidine uptake was measured in a beta counter. […] The association between T cell frequency and NBI-5788 treatment was evaluated by χ^2 contingency analysis.
# [2] = test system: T cell cultures from multiple sclerosis patients; test: Th2/Th1 (IL-13/IFN-γ) activity of T cell cultures of MS patients by dose group; format: in vivo, human; conditions: 1, 5 and 20 mg dose groups, weeks 3, 5 and 8; most prominently in the 5 and 20 mg dose groups, FIG. 34
# Description: T cell analyses (cytokine production) were performed at Week 1 (pre-dosing), at Week 3 (=just prior to third dose), at Week 5 (1 week after last dose) and Week 8 (4 weeks after last dose). Tritiated thymidine uptake was measured using a beta scintillation counter (Topcount, Packard).
# Interferon-γ(marker for Th1 activity) and IL-13 (marker for Th2 activity) were measured by Enzyme-Linked Immuno-Assay (ELISA) in T cell culture supernatants collected prior to [^3H]-thymidine incorporation (proliferation assay).
# To measure IFN-γ produced by T cell cultures, a sandwich ELISA method was employed. Microtiter plates were coated with 2 μg/ml capture antibody (Pharmingen, San Diego) in 0.1 M NaHCO3 (pH=8.2) overnight at 4° C. Plates were then incubated with blocking buffer (1% solution [w/v] of casein [Sigma] in water, pH=8.2) for at least 30 minutes at room temperature to block non-specific binding sites. […] The reaction was stopped by the addition of 0.2N H2SO4 and absorbance at 450 nm was determined using a microplate spectrophotometer (Molecular Dynamics, Sunnyvale, Calif., USA). […]
# To measure IL-13 produced by T cell cultures, a sandwich ELISA method was employed. […] The reaction was stopped by the addition of 0.2N H2SO4 and absorbance at 450 nm was determined using a microplate spectrophotometer (Molecular Dynamics, Sunnyvale, Calif., USA). […]
# [3] = subject MS-2, untreated MS patient
# [4] = subject MS-3, untreated MS patient
# [5] = subject MS-7, untreated MS patient
# [6] = subject MS-8, untreated MS patient
# [7] = subject MS-9, untreated MS patient
# [8] = subject MS-10, untreated MS patient
# [9] = subject MS-11, untreated MS patient
substance,measurement,setting,value
"MBP(83-99) (83E>a, 84N>K, 89F>L, and 91K>A) ([dA]KPVVHLFANIVTPRTP) [NBI-5788]","antigen-reactive T cells, Positive/total wells",[1]; Total of healthy donors,0/96
same,"antigen-reactive T cells, Positive/total wells",[1]; Total of untreated MS patients,19/308
same,"antigen-reactive T cells, % Positive",[1]; healthy donor HD-1,0%
same,"antigen-reactive T cells, Positive/total wells",[1]; healthy donor HD-1,0/48
same,"antigen-reactive T cells, % Positive",[1]; healthy donor HD-2,0%
same,"antigen-reactive T cells, Positive/total wells",[1]; healthy donor HD-2,0/48
same,"antigen-reactive T cells, % Positive",[1]; [3],6.8%
same,"antigen-reactive T cells, Positive/total wells",[1]; [3],3/44
same,"antigen-reactive T cells, % Positive",[1]; [4],2.3%
same,"antigen-reactive T cells, Positive/total wells",[1]; [4],1/44
same,"antigen-reactive T cells, % Positive",[1]; [5],6.8%
same,"antigen-reactive T cells, Positive/total wells",[1]; [5],3/44
same,"antigen-reactive T cells, % Positive",[1]; [6],11.4%
same,"antigen-reactive T cells, Positive/total wells",[1]; [6],5/44
same,"antigen-reactive T cells, % Positive",[1]; [7],9.1%
same,"antigen-reactive T cells, Positive/total wells",[1]; [7],4/44
same,"antigen-reactive T cells, % Positive",[1]; [8],4.5%
same,"antigen-reactive T cells, Positive/total wells",[1]; [8],2/44
same,"antigen-reactive T cells, % Positive",[1]; [9],2.3%
same,"antigen-reactive T cells, Positive/total wells",[1]; [9],1/44
same,frequency of antigen-reactive T cells in healthy subjects,"[1]; two healthy subjects, MBP-reactive cells detected in one of two",no NBI-5788-reactive T cells were detected
same,mean frequency of antigen-reactive T cells,[1]; untreated MS patients (n=7),6.2±1.3%
same,ratio of overall Th2-type to overall Th1-type activities (IL-13/IFN-γ),[2],clear shift to an overall Th2 activity
